Laboratory results as given in ChEMBL document CHEMBL1201862, “PubChem BioAssay data set” (2004).
Calls of active or inactive are those of the source.

Key:
[1] = tested on: HEK293; assay: cells; conditions: Homo sapiens
[2] = blockers of HIV-1 ZM109 envelope-driven cell-cell fusion – HeLa effector, CEM target cells, luciferase, cherry-pick, dose response (AID 652058); type: functional, cell-based;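 further: luciferase signal from HIV-1 Env mediated cell-cell fusion of effector and target cells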
[3] = HIV-1 AD8 envelope cell-cell fusion blockers – cherry-pick, dose response (AID 652062); type: functional, cell-based;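 further: luciferase signal from cell-cell fusion driven by HIV-1 clade B AD8 Env; potency is for inhibitors of fusion seen as a drop in luminescence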
[4] = off-target signal loss in HeLa-CEM21 co-culture – HeLa F-luc CTL cells, cherry-picked, counter-screen for HIV-1 Env fusion inhibitor project, dose response (AID 652040); type: functional, cell-based;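 further: potency for signal decrease marking cytotoxic or nonspecific inhibition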
[5] = tested on: HEK293; assay: cells; conditions: Homo sapiens; remark: listed apart in the source
[6] = blockers of HIV-1 envelope-mediated cell-cell fusion – cherry-pick, dose response (AID 652057); type: functional, cell-based
[7] = target: Beta-lactamase (Salmonella choleraesuis (strain SC-B67), UniProt Q5J463)
Sequence of Beta-lactamase (Salmonella choleraesuis (strain SC-B67), UniProt Q5J463) (Q5J463 whole entry): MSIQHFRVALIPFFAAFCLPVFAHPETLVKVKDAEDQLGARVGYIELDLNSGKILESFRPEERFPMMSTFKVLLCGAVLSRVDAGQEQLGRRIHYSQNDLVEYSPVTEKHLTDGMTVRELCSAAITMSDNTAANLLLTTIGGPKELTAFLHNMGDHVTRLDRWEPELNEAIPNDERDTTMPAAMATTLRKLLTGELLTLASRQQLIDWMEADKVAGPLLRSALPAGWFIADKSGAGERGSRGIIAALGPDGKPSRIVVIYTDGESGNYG

[8] = target: Beta-lactamase (Pseudomonas aeruginosa, UniProt Q79MP6);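 further: biochemical dose-response test of metallo-beta-lactamase enzyme inhibition, read out by epi-absorbance; purified recombinant IMP-1 metallo-beta-lactamase with nitrocefin as substrate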
Sequence of Beta-lactamase (Pseudomonas aeruginosa, UniProt Q79MP6) (Q79MP6 whole entry): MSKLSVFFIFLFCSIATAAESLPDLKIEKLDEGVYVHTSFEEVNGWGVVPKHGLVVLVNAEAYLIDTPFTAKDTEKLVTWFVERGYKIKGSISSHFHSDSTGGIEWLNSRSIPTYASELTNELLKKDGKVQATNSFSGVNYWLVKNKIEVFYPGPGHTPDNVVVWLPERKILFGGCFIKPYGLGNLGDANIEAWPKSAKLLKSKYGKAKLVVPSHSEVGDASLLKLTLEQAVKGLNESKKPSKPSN

[9] = target: Troponin, cardiac muscle (Homo sapiens, UniProt P19429+P45379+P63316); assay: Fluorescence-based biochemical high throughput dose response assay for activators of the calcium sensitivity of cardiac Regulated Thin Filaments (RTF). [Related pubchem assays (depositor defined):AID493008, AID493018, AID504382, AID504383]; type: protein-complex assay
[10] = target: T1, DNA repair and recombination protein RAD54-like (Homo sapiens, UniProt Q92698); assay: RAD54 Holliday junction migration blockers – biochemical, fluorescence, cherry-picked samples, dose series, confirmation (AID 651657); type: functional
T1 sequence (Q92698 whole entry): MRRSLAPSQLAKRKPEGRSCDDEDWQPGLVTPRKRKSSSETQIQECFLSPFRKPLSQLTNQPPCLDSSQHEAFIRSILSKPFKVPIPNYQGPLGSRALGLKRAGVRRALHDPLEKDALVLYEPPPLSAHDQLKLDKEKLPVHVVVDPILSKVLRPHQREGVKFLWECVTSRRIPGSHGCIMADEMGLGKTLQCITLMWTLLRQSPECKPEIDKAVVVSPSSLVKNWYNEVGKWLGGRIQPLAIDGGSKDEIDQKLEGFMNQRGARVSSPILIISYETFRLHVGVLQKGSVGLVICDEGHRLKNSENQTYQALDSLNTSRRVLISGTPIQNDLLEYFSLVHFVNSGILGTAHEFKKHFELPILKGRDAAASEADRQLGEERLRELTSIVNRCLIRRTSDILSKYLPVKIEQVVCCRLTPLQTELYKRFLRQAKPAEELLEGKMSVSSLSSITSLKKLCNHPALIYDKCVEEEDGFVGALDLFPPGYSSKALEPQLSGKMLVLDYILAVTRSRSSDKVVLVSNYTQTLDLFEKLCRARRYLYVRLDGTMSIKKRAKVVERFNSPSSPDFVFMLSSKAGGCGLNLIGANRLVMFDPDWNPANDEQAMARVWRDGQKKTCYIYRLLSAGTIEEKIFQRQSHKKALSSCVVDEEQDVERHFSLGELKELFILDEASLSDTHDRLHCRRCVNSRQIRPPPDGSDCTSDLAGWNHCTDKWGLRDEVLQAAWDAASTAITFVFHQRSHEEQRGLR

[11] = target: DNA repair protein RAD52 homolog (Homo sapiens, UniProt P43351); type: functional, biochemical
Sequence of DNA repair protein RAD52 homolog (P43351 whole entry): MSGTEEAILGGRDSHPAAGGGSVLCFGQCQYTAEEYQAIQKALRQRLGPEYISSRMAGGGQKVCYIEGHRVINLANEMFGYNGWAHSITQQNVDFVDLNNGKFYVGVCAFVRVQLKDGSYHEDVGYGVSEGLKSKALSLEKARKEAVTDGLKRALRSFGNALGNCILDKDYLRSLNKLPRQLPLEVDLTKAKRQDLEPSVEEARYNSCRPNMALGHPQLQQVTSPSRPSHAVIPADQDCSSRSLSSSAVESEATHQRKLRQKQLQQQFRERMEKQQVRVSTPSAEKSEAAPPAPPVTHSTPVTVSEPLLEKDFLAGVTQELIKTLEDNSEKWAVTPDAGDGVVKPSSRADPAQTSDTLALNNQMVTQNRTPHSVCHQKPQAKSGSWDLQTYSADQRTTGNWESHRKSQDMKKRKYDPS

[12] = Luminescence Cell-Based Dose Confirmation HTS to Identify Inhibitors of Platelet Dense Granule Release. [Related pubchem assays: 1663 (Primary HTS), 1678 (Summary of Project)]; type: functional
[13] = target: Luciferin 4-monooxygenase (Photinus pyralis, UniProt P08659); assay: inhibition of purified Photinus pyralis luciferase – biochemical, luminescence, dose response (AID 1891)
Sequence of Luciferin 4-monooxygenase (P08659 whole entry): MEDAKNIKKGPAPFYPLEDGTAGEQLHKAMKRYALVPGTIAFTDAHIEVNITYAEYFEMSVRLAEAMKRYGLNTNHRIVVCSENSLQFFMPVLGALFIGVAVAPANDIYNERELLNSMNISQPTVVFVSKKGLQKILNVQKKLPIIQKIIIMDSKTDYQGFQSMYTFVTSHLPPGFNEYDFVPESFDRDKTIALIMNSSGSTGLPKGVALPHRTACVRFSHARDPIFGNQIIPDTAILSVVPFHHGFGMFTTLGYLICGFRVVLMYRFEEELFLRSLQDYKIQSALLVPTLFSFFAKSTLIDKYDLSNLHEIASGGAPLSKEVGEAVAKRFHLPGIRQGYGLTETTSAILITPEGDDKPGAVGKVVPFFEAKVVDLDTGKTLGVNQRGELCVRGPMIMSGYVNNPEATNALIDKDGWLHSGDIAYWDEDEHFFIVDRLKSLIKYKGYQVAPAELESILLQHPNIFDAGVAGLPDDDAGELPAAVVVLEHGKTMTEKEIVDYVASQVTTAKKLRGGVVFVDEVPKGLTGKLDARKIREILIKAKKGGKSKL

[14] = target: Cytochrome P450 2D6 (Homo sapiens, UniProt P10635);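 further: CYP2D6 member of a cytochrome P450 panel assay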
Sequence of Cytochrome P450 2D6 (P10635 whole entry): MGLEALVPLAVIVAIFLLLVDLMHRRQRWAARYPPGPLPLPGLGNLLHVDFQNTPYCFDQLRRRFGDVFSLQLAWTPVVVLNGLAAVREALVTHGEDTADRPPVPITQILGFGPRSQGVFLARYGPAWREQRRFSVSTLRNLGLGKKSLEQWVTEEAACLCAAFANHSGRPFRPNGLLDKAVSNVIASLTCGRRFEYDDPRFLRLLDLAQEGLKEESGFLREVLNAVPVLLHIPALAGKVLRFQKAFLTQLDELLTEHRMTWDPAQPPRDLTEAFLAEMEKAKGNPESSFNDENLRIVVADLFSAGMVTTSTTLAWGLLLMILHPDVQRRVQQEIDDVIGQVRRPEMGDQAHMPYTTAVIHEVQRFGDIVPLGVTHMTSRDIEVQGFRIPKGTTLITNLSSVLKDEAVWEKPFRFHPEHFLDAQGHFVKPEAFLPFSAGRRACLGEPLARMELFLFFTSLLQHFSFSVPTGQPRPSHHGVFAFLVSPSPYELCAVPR

[15] = target: T2, Scavenger receptor class B member 1 (Mus musculus, UniProt Q61009); assay: blockers of DiI-HDL lipid transfer via SR-BI – cell-based, ldlA[mSR-BI] CHO, DiI fluorescence, dry powder, set 10, dose response (AID 624029); type: functional
T2 sequence (Q61009 whole entry): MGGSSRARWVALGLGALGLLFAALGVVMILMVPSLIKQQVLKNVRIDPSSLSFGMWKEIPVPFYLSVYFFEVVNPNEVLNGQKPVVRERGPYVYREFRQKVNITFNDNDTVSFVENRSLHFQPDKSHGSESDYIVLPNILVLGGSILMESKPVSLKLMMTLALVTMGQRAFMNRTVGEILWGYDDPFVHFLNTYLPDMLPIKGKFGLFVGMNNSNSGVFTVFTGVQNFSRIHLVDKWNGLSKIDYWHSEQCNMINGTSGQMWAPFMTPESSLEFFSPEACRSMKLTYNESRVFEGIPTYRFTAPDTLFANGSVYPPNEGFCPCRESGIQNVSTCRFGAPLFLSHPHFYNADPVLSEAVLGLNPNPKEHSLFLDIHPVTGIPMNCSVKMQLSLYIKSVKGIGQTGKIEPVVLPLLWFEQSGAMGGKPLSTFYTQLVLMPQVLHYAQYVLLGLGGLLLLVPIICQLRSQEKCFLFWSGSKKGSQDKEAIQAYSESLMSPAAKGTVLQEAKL

[16] = tested on: Vero; assay: viability loss in Vero cells – cell-based, plate reader, cherry-pick samples, cytotoxicity control, dose response (AID 687020); type: functional; conditions: Chlorocebus sabaeus
[17] = Trypanosoma cruzi growth suppression in host cells – NIH3T3 host cells, beta-gal luminescence, confirmation (AID 2044); type: functional, cell-based;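 further: intracellular parasites grown in NIH/3T3 mouse fibroblasts as host cells; luminescent beta-galactosidase reporter signal from transgenic T. cruzi replicating inside host cells; inhibitors lower the luminescence signal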
[18] = NIH3T3 cell viability loss – ATP luminescence, mouse fibroblasts, counter-screen, dose response (AID 2010); type: functional, cell-based;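 further: cells exposed to compound for about 90 hours before reading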
[19] = tested on: INS1; assay: INS-1E survival protection against cytokine death – cell-based, luminescence, retest, dose response (AID 449756); type: functional; conditions: Rattus norvegicus;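 further: cell death triggered by IL-1 beta plus TNF-alpha plus IFN-gamma mixture; protective hits raise ATP signal compared with cytokine alone wells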
[20] = target: T3, Serine/threonine-protein phosphatase (Candida dubliniensis (strain CD36 / CBS 7987 / NCPF 3949 / NRRLY-17841) (Yeast), UniProt B9W6M3); assay: blockers of CaCl2-induced CDRE-lacZ signaling – S. cerevisiae, luminescence, secondary, dose response (AID 2388); type: functional, cell-based;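 further: yeast reporter cells carrying a calcineurin-responsive lacZ construct stimulated with calcium chloride; luminescent beta-galactosidase reporter signal in whole cells rather than isolated phosphatase activity; potency for inhibition where a drop in reporter signal means calcineurin blockade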
T3 sequence (B9W6M3 whole entry): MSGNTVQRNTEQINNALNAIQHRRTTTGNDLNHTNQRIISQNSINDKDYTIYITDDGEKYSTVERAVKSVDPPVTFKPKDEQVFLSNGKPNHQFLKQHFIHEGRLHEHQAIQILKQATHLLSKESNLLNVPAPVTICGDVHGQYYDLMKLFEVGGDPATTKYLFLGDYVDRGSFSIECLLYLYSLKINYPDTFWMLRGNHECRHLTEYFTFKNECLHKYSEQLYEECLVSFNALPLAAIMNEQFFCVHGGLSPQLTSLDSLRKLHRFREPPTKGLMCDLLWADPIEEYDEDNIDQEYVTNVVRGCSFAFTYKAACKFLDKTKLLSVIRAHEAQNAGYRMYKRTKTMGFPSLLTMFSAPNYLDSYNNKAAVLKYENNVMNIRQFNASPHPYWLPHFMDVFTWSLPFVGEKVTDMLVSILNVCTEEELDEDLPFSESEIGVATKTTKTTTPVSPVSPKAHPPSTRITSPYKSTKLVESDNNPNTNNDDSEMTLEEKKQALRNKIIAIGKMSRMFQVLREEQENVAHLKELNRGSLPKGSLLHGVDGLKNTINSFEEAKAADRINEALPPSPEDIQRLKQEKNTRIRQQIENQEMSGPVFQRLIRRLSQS

[21] = cells; type: functional, cell-based
[22] = target: Photoreceptor-specific nuclear receptor (Homo sapiens, UniProt Q9Y5X4); type: functional, cell-based;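 further: CHO-S cells with Gal4-NCOR and VP16-NR2E3 two-hybrid luciferase reporter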
Sequence of Photoreceptor-specific nuclear receptor (Q9Y5X4 whole entry, the tested form may be a part): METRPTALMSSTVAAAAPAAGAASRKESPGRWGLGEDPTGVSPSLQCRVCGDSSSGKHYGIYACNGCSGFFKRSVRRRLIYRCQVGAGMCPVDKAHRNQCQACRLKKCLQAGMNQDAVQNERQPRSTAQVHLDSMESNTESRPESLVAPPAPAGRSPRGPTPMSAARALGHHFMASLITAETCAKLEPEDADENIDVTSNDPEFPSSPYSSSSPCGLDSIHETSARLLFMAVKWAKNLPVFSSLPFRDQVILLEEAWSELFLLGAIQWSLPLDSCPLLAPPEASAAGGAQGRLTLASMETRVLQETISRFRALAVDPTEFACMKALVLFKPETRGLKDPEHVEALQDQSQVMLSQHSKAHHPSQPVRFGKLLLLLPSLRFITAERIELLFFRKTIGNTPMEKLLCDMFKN

[23] = fluconazole-exposed Candida albicans growth modulators – fluorescence, retest, confirmation (AID 2467); type: functional, cell-based
[24] = target: ATP-dependent molecular chaperone HSP82 (Candida albicans (strain WO-1) (Yeast), UniProt C4YTQ8); assay: steroid-induced GRE reporter decrease in yeast – S. cerevisiae, luminescence, Hsp90 inhibitor project, dose response (AID 2400); type: functional, cell-based;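 further: beta-galactosidase luminescence from glucocorticoid response element reporter as proxy for Hsp90 function; inhibitor potency where signal loss means Hsp90 inhibition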
Sequence of ATP-dependent molecular chaperone HSP82 (C4YTQ8 whole entry): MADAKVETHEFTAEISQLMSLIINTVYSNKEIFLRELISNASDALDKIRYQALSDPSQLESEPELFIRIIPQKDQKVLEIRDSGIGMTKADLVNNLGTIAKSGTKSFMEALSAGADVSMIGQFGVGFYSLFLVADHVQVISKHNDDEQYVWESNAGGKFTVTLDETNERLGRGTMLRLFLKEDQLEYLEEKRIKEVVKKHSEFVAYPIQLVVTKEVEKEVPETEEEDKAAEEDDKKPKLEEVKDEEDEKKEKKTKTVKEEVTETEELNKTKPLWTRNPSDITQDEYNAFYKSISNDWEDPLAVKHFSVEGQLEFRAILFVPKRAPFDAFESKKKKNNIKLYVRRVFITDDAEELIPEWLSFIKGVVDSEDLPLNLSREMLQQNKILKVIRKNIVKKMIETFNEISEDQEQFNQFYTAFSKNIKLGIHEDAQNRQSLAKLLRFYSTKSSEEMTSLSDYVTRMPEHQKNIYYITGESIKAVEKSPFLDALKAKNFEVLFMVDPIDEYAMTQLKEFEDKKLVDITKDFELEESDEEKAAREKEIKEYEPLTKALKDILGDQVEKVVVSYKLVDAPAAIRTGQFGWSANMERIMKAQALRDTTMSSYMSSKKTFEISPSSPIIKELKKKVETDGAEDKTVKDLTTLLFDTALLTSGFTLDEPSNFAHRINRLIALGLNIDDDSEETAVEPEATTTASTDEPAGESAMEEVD

[25] = NIH-3T3 fibroblast cytotoxicity, dose response, cytotoxicity control, cell-based, fluorescence, Alamar Blue, secondary assay (AID 2327); type: functional;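 further: NIH-3T3 mouse fibroblasts cultured with fluconazole at 8 µg/mL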
[26] = cells; type: functional, cell-based; remark: listed apart in the source

In the case of `COc1ccc(NC(=O)C2CCCN2S(=O)(=O)c2ccc3c(c2)CCC(=O)N3)cc1Cl` (stereo unspecified), the EC50 [1] is reported as > 59.6 µM (inactive), the AC50 [2] is reported as 3.18 µM (active) and the AC50 [3] is reported as 17.3 µM (active). The AC50 [4] was 14.8 µM (active), the EC50 [5] was > 59.6 µM (inactive) and the AC50 [6] was 7.43 µM (active).

With `COc1ccc(/C=C2/SC(c3ccc(C)cc3)=NC2=O)cc1OC` the IC50 [7] was > 59.6 µM (inactive), the IC50 [8] was > 59.6 µM (inactive) and the EC50 [9] was 0.742 µM (active).

With `CN(C)CCCNc1nc2cc(-c3ccc(F)cc3)sc2c(=O)n1C` the AC50 [10] was 33.8 µM (active) and the AC50 [11] was 7.84 µM (active).

In the case of `Cc1ccc(N2C(=O)CC(c3ccsc3)C3=C2CC(C)(C)CC3=O)cc1` (stereo unspecified), the AC50 [2] is reported as 3.55 µM (active), the AC50 [3] is reported as 18.9 µM (active) and the AC50 [4] is reported as 5.07 µM (active). The EC50 [12] was > 112 µM (not active), the AC50 [6] was 3.24 µM (active) and the EC50 [13] was > 112 µM (not active). The AC50 [14] was 39.8 µM (inconclusive).

In the case of `CC(C)NC(=O)Nc1ccc2c(c1)C(=O)N([C@H](C)CO)C[C@H](C)[C@H](CN(C)S(=O)(=O)c1ccc(Cl)cc1)O2`, the AC50 [15] is reported as 57.4 µM (active).

In the case of `CC(C)C[C@@H](COc1ccccc1)N1CCN(Cc2ccccc2)CCC1=O`, the AC50 [16] is reported as 33.5 µM (active).

In the case of `COc1ccc2ccccc2c1-c1sc(Nc2ccccc2)n[n+]1-c1ccc(F)cc1`, the EC50 [17] is reported as 0.707 µM (active), the EC50 [18] is reported as > 30 µM (not active) and the AC50 [16] is reported as 31.6 µM (active).

For `CC(=O)NC(c1cccs1)c1cc([N+](=O)[O-])c2cccnc2c1O` (stereo unspecified), the AC50 [19] was 4.94 µM (active), the EC50 [20] was > 180 µM (inactive) and the EC50 [21] was > 350 µM (not active). For the same compound, the IC50 [22] was 4.71 µM (active), the EC50 [23] was 0.757 µM (active) and the EC50 [24] was > 150 µM (inactive). The EC50 [25] was 46.7 µM (inconclusive) and the EC50 [26] was 51.5 µM (active).
